Test results as given in patent US20060069132A1, “Azolecarboxamide herbicides” (priority 2004, published 2006).

Columns and labels:
barnyardgrass [1] = assay: Test A pre-/postemergence herbicide test; type: in vivo, Echinochloa crus-galli
Excerpt: (§1) Seeds of plant species selected from barnyardgrass (Echinochloa crus-galli (L.) Beauv.), downy bromegrass (Bromus tectorum L.), large crabgrass (Digitaria sanguinalis (L.) Scop.), giant foxtail (Setaria faberi Herrm.), morningglory (Ipomoea spp.), redroot pigweed (Amaranthus retroflexus L.) and velvetleaf (Abutilon theophrasti Medik.) were planted into a sandy loam soil and treated preemergence with a directed soil spray using test chemicals formulated in a non-phytotoxic solvent mixture which included a surfactant. At the same time plants selected from these species were also treated postemergence by spraying to runoff with test chemicals formulated.
(§2) Plants ranged in height from 2 to 10 cm and were in the one- to two-leaf stage for the postemergence treatment. Treated plants and untreated controls were maintained in a greenhouse for approximately ten days, after which time all treated plants were compared to untreated controls and visually evaluated for injury. Plant response ratings, summarized in Table A, are based on a 0 to 100 scale where 0 is no effect and 100 is complete control. A dash (-) response means no test results.

large crabgrass [2] = assay: Test A pre-/postemergence herbicide test; type: in vivo, Digitaria sanguinalis
Excerpt: as §1, §2

giant foxtail [3] = assay: Test A pre-/postemergence herbicide test; type: in vivo, Setaria faberi
Excerpt: as §1, §2

morningglory [4] = assay: Test A pre-/postemergence herbicide test; type: in vivo, Ipomoea spp.
Excerpt: as §1, §2

redroot pigweed = assay: Test A pre-/postemergence herbicide test; type: in vivo, Amaranthus retroflexus
Excerpt: as §1, §2

velvetleaf [5] = assay: Test A pre-/postemergence herbicide test; type: in vivo, Abutilon theophrasti
Excerpt: as §1, §2

barnyardgrass [6] = assay: Test B pre-/postemergence herbicide test; type: in vivo, Echinochloa crus-galli; details: Postemergence, scale 0 (no effect) to 100 (complete control)
Excerpt: (§3) Seeds selected from barnyardgrass (Echinochloa crus-galli (L.) Beauv.), Surinam grass (Urochloa decumbens (Staph) R. D. Webster, previously named Brachiaria decumbens Stapf), cocklebur (Xanthium strumarium L.), corn (Zea mays L.), large crabgrass (Digitaria sanguinalis (L.) Scop.), giant foxtail (Setaria faberi Herim.), lambsquarters (Chenopodium album L.), morningglory (Ipomoea coccinea L.), pigweed (Amaranthus retroflexus L.), rice (Oryza sativa L.) and velvetleaf (Abutilon theophrasti Medik.) were planted and treated preemergence with test chemicals formulated in a non-phytotoxic solvent mixture which included a surfactant.
(§4) At the same time, plants selected from these crop and weed species and also blackgrass (Alopecurus myosuroides Huds.), wheat (Triticum aestivum L.) and wild oat (Avena fatua L.) were treated with postemergence applications of test chemicals formulated in the same manner. Plants ranged in height from 2 to 18 cm (1- to 4-leaf stage) for postemergence treatments. Plant species in the flooded paddy test consisted of rice (Oryza sativa L.), small flower umbrella sedge (Cyperus difformis L.), ducksalad (Heteranthera limosa (Sw.) Willd.) and barnyardgrass (Echinochloa crus-galli (L.) Beauv.) grown to the 2-leaf stage for testing. Treated plants and controls were maintained in a greenhouse for 13 to 15 days, after which time all species were compared to controls and visually evaluated. Plant response ratings, summarized in Table B, are based on a scale of 0 to 100 where 0 is no effect and 100 is complete control. A dash (-) response means no test result.

Surinam grass = assay: Test B pre-/postemergence herbicide test; type: in vivo, Urochloa decumbens
Excerpt: as §3, §4

cocklebur = assay: Test B pre-/postemergence herbicide test; type: in vivo, Xanthium strumarium
Excerpt: as §3, §4

corn = assay: Test B pre-/postemergence herbicide test; type: in vivo, Zea mays
Excerpt: as §3, §4

large crabgrass [7] = assay: Test B pre-/postemergence herbicide test; type: in vivo, Digitaria sanguinalis
Excerpt: as §3, §4

giant foxtail [8] = assay: Test B pre-/postemergence herbicide test; type: in vivo, Setaria faberi
Excerpt: as §3, §4

lambsquarters = assay: Test B pre-/postemergence herbicide test; type: in vivo, Chenopodium album
Excerpt: as §3, §4

morningglory [9] = assay: Test B pre-/postemergence herbicide test; type: in vivo, Ipomoea coccinea
Excerpt: as §3, §4

pigweed = assay: Test B pre-/postemergence herbicide test; type: in vivo, Amaranthus retroflexus
Excerpt: as §3, §4

velvetleaf [10] = assay: Test B pre-/postemergence herbicide test; type: in vivo, Abutilon theophrasti
Excerpt: as §3, §4

blackgrass = assay: Test B postemergence herbicide test; type: in vivo, Alopecurus myosuroides
Method: as §4

wheat = assay: Test B postemergence herbicide test; type: in vivo, Triticum aestivum; set-up: key to Wheat plant response rating: 0 = no effect, 100 = complete control
Method: as §4

wild oat = assay: Test B postemergence herbicide test; type: in vivo, Avena fatua
Method: as §4

rice = assay: Test B flooded paddy test; type: in vivo, Oryza sativa; details: 125 g ai/ha, scale 0 to 100 (0 no effect, 100 complete control)
Method: as §4

[11] = tested on: small flower umbrella sedge; assay: Test B flooded paddy test; type: in vivo, Cyperus difformis; details: 125 g ai/ha, scale 0 to 100 (0 no effect, 100 complete control)
Method: as §4

barnyardgrass [12] = assay: Test B flooded paddy test; type: in vivo, Echinochloa crus-galli; details: 125 g ai/ha, scale 0 to 100 (0 no effect, 100 complete control)
Method: as §4

[13] = Postemergence, 125 g ai/ha, 0 to 100 scale, 0 no effect, 100 complete control
[14] = Postemergence, 500 g ai/ha, 0 to 100 scale, 0 no effect, 100 complete control
[15] = Preemergence, 500 g ai/ha, visual rating, 0 to 100 scale (0 no effect, 100 complete control)
[16] = preemergence, 125 g ai/ha, visual injury, 0 to 100 scale (0 no effect, 100 complete control)
[17] = Postemergence, 250 g ai/ha, 0 to 100 scale, 0 no effect, 100 complete control
[18] = Postemergence, 1000 g ai/ha, 0 to 100 scale, 0 no effect, 100 complete control
[19] = Preemergence, 1000 g ai/ha, visual rating, 0 to 100 scale (0 no effect, 100 complete control)
[20] = preemergence, 250 g ai/ha, visual injury, 0 to 100 scale (0 no effect, 100 complete control)
[21] = Postemergence, 2000 g ai/ha, 0 to 100 scale, 0 no effect, 100 complete control
[22] = Preemergence, 2000 g ai/ha, visual rating, 0 to 100 scale (0 no effect, 100 complete control)
[23] = Postemergence, 500 g ai/ha, scale 0 (no effect) to 100 (complete control)
[24] = postemergence, 125 g ai/ha, scale 0 to 100
[25] = preemergence, 500 g ai/ha, visual injury, 0 to 100 scale (0 no effect, 100 complete control)

## C=Cn1nc(C(C)(C)C)cc1C(=O)Nc1cccc(C(=O)NCCCl)c1 [Compound 38]
Barnyardgrass [1]; [13]
  Barnyardgrass plant response rating: 40
Barnyardgrass [1]; [14]
  Plant response rating, Barnyardgrass: 55
Barnyardgrass [1]; [15]
  Barnyardgrass plant response rating: 5
Barnyardgrass [1]; [16]
  Barnyardgrass plant response rating: 0
Large crabgrass [2]; [13]
  Crabgrass, Large plant response rating: 30
Large crabgrass [2]; [14]
  Plant response rating, Crabgrass, Large: 60
Large crabgrass [2]; [15]
  Crabgrass, Large plant response rating: 10
Large crabgrass [2]; [16]
  Crabgrass, Large plant response rating: 0
Giant foxtail [3]; [13]
  Foxtail, Giant plant response rating: 50
Giant foxtail [3]; [14]
  Plant response rating, Foxtail, Giant: 60
Giant foxtail [3]; [15]
  Foxtail, Giant plant response rating: 0
Giant foxtail [3]; [16]
  Foxtail, Giant plant response rating: 0
Morningglory [4]; [13]
  Morningglory plant response rating: 0
Morningglory [4]; [14]
  Plant response rating, Morningglory: 0
Morningglory [4]; [15]
  Morningglory plant response rating: 10
Morningglory [4]; [16]
  Morningglory plant response rating: 5
Redroot pigweed; [13]
  Pigweed plant response rating: 50
Redroot pigweed; [14]
  Plant response rating, Pigweed: 70
Redroot pigweed; [15]
  Pigweed plant response rating: 0
Redroot pigweed; [16]
  Pigweed plant response rating: 0
Velvetleaf [5]; [13]
  Velvetleaf plant response rating: 10
Velvetleaf [5]; [14]
  Plant response rating, Velvetleaf: 20
Velvetleaf [5]; [15]
  Velvetleaf plant response rating: 5
Velvetleaf [5]; [16]
  Velvetleaf plant response rating: 0

## C=Cn1nc(C(C)(C)C)cc1C(=O)Nc1cccc(C(=O)NC2CC2)c1 [Compound 39]
Barnyardgrass [1]; [17]
  Barnyardgrass plant response rating: 10
Barnyardgrass [1]; [18]
  Plant response rating, Barnyardgrass: 55
Barnyardgrass [1]; [19]
  Barnyardgrass plant response rating: 25
Barnyardgrass [1]; [20]
  Barnyardgrass plant response rating: 15
Large crabgrass [2]; [17]
  Crabgrass, Large plant response rating: 10
Large crabgrass [2]; [18]
  Plant response rating, Crabgrass, Large: 35
Large crabgrass [2]; [19]
  Crabgrass, Large plant response rating: 85
Large crabgrass [2]; [20]
  Crabgrass, Large plant response rating: 35
Giant foxtail [3]; [17]
  Foxtail, Giant plant response rating: 10
Giant foxtail [3]; [18]
  Plant response rating, Foxtail, Giant: 45
Giant foxtail [3]; [19]
  Foxtail, Giant plant response rating: 40
Giant foxtail [3]; [20]
  Foxtail, Giant plant response rating: 20
Morningglory [4]; [17]
  Morningglory plant response rating: 0
Morningglory [4]; [18]
  Plant response rating, Morningglory: 0
Morningglory [4]; [19]
  Morningglory plant response rating: 20
Morningglory [4]; [20]
  Morningglory plant response rating: 0
Redroot pigweed; [17]
  Pigweed plant response rating: 70
Redroot pigweed; [18]
  Plant response rating, Pigweed: 75
Redroot pigweed; [19]
  Pigweed plant response rating: 100
Redroot pigweed; [20]
  Pigweed plant response rating: 55
Velvetleaf [5]; [17]
  Velvetleaf plant response rating: 10
Velvetleaf [5]; [18]
  Plant response rating, Velvetleaf: 10
Velvetleaf [5]; [19]
  Velvetleaf plant response rating: 20
Velvetleaf [5]; [20]
  Velvetleaf plant response rating: 10

## Cn1nc(C(C)(C)C)cc1C(=O)Nc1cccc2c1CCC2=NO [Compound 111]
Barnyardgrass [1]; [14]
  Barnyardgrass plant response rating: 0
Barnyardgrass [1]; [21]
  Plant response rating, Barnyardgrass: 0
Barnyardgrass [1]; [15]
  Barnyardgrass plant response rating: 0
Barnyardgrass [1]; [22]
  Barnyardgrass plant response rating: 10
Large crabgrass [2]; [14]
  Crabgrass, Large plant response rating: 10
Large crabgrass [2]; [21]
  Plant response rating, Crabgrass, Large: 10
Large crabgrass [2]; [15]
  Crabgrass, Large plant response rating: 25
Large crabgrass [2]; [22]
  Crabgrass, Large plant response rating: 30
Giant foxtail [3]; [14]
  Foxtail, Giant plant response rating: 0
Giant foxtail [3]; [21]
  Plant response rating, Foxtail, Giant: 0
Giant foxtail [3]; [15]
  Foxtail, Giant plant response rating: 45
Giant foxtail [3]; [22]
  Foxtail, Giant plant response rating: 75
Morningglory [4]; [14]
  Morningglory plant response rating: 5
Morningglory [4]; [21]
  Plant response rating, Morningglory: 0
Morningglory [4]; [15]
  Morningglory plant response rating: 0
Morningglory [4]; [22]
  Morningglory plant response rating: 0
Redroot pigweed; [14]
  Pigweed plant response rating: 5
Redroot pigweed; [21]
  Plant response rating, Pigweed: 10
Redroot pigweed; [15]
  Pigweed plant response rating: 10
Redroot pigweed; [22]
  Pigweed plant response rating: 10
Velvetleaf [5]; [14]
  Velvetleaf plant response rating: 0
Velvetleaf [5]; [21]
  Plant response rating, Velvetleaf: 0
Velvetleaf [5]; [15]
  Velvetleaf plant response rating: 0
Velvetleaf [5]; [22]
  Velvetleaf plant response rating: 0

## CCN(CC)C(=O)c1cccc(NC(=O)c2nn(C(C)(C)C)nc2C)n1 [Compound 440]
Barnyardgrass [6]; 125 g ai/ha
  Barnyardgrass plant response rating: 0
Barnyardgrass [6]; 500 g ai/ha
  Barnyardgrass plant response rating: 0
Surinam grass; [23]
  Surinam Grass plant response rating: 10
Surinam grass; [24]
  Surinam Grass plant response rating: 0
cocklebur; [23]
  Cocklebur plant response rating: 0
cocklebur; [24]
  Cocklebur plant response rating: 0
corn; [23]
  Corn plant response rating: 20
corn; [24]
  Corn plant response rating: 0
Large crabgrass [7]; [23]
  Crabgrass, Large plant response rating: 10
Large crabgrass [7]; [24]
  Crabgrass, Large plant response rating: 0
Giant foxtail [8]; [23]
  Foxtail, Giant plant response rating: 0
Giant foxtail [8]; [24]
  Foxtail, Giant plant response rating: 0
lambsquarters; [23]
  Lambsquarters plant response rating: 10
lambsquarters; [24]
  Lambsquarters plant response rating: 0
Morningglory [9]; [23]
  Morningglory plant response rating: 20
Morningglory [9]; [24]
  Morningglory plant response rating: 0
pigweed; [23]
  Pigweed plant response rating: 10
pigweed; [24]
  Pigweed plant response rating: 0
Velvetleaf [10]; [23]
  Velvetleaf plant response rating: 0
Velvetleaf [10]; [24]
  Velvetleaf plant response rating: 0
blackgrass; [23]
  Blackgrass plant response rating: 20
blackgrass; [24]
  Blackgrass plant response rating: 20
wheat; 500 g ai/ha, scale 0 to 100, 0 no effect, 100 complete control, preemergence
  Wheat plant response rating: 0
wheat; [23]
  Wheat plant response rating: 0
wheat; [24]
  Wheat plant response rating: 0
Wild oat; [23]
  Oat, Wild plant response rating: 30
Wild oat; [24]
  Oat, Wild plant response rating: 20
rice
  Rice plant response rating: 0
[11]
  Sedge, Umbrella plant response rating: 0
Barnyardgrass [12]
  Barnyardgrass plant response rating: 0

## CCc1nn(C(C)(C)C)cc1C(=S)Nc1cc(C(=S)N(C)C)ccc1F [Compound 453]
Barnyardgrass [1]; [13]
  Barnyardgrass plant response rating: 10
Barnyardgrass [1]; [14]
  Barnyardgrass plant response rating: 15
Barnyardgrass [1]; [16]
  Barnyardgrass plant response rating: 20
Barnyardgrass [1]; [25]
  Barnyardgrass plant response rating: 45
Large crabgrass [2]; [13]
  Crabgrass, Large plant response rating: 10
Large crabgrass [2]; [14]
  Crabgrass, Large plant response rating: 10
Large crabgrass [2]; [16]
  Crabgrass, Large plant response rating: 10
Large crabgrass [2]; [25]
  Crabgrass, Large plant response rating: 15
Giant foxtail [3]; [13]
  Foxtail, Giant plant response rating: 10
Giant foxtail [3]; [14]
  Foxtail, Giant plant response rating: 10
Giant foxtail [3]; [16]
  Foxtail, Giant plant response rating: 0
Giant foxtail [3]; [25]
  Foxtail, Giant plant response rating: 0
Morningglory [4]; [13]
  Morningglory plant response rating: 10
Morningglory [4]; [14]
  Morningglory plant response rating: 10
Morningglory [4]; [16]
  Morningglory plant response rating: 0
Morningglory [4]; [25]
  Morningglory plant response rating: 0
Redroot pigweed; [13]
  Pigweed plant response rating: 10
Redroot pigweed; [14]
  Pigweed plant response rating: 20
Redroot pigweed; [16]
  Pigweed plant response rating: 10
Redroot pigweed; [25]
  Pigweed plant response rating: 10
Velvetleaf [5]; [13]
  Velvetleaf plant response rating: 5
Velvetleaf [5]; [14]
  Velvetleaf plant response rating: 10
Velvetleaf [5]; [16]
  Velvetleaf plant response rating: 0
Velvetleaf [5]; [25]
  Velvetleaf plant response rating: 0
